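Cultured in 96-well plates, cells were exposed to test compound for 48 hours across five concentrations. GI50: concentration for 50% inhibition of growth.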 The source made the active and inactive calls. No stated cut-off is given here; in the data, active = GI50 up to about 1.1 µM and inactive = higher.
Assays:
Experiment in all cases: growth of human tumour cells (NCI), 48 h
[1] = tested on: SW-620
[2] = tested on: SNB-19
[3] = tested on: A498
[4] = tested on: SK-MEL-2
[5] = tested on: SN12C
[6] = tested on: RXF 393
[7] = tested on: MCF7
[8] = tested on: OVCAR-8
[9] = tested on: OVCAR-5
[10] = tested on: EKVX
[11] = tested on: HOP-62
[12] = tested on: UO-31
[13] = tested on: M14
[14] = tested on: Malme-3M
[15] = tested on: MDA-MB-231
[16] = tested on: KM12
[17] = tested on: Hs-578T
[18] = tested on: PC-3
[19] = tested on: MDA-MB-435
[20] = tested on: NCI/ADR-RES

Row | Compound | GI50 [1] | GI50 [2] | GI50 [3] | GI50 [4] | GI50 [5] | GI50 [6] | GI50 [7] | GI50 [8] | GI50 [9] | GI50 [10] | GI50 [11] | GI50 [12] | GI50 [13] | GI50 [14] | GI50 [15] | GI50 [16] | GI50 [17] | GI50 [18] | GI50 [19] | GI50 [20]
1 | CC1(C)OC[C@@H](O)[C@H](C#N)CO1 | > 100 µM (inactive) | > 100 µM (inactive) | > 100 µM (inactive) | > 100 µM (inactive) | > 100 µM (inactive) | > 100 µM (inactive) | > 100 µM (inactive) | > 100 µM (inactive) | > 100 µM (inactive) | > 100 µM (inactive) | > 100 µM (inactive) | > 100 µM (inactive) | > 100 µM (inactive) | > 100 µM (inactive) | > 100 µM (inactive) | > 100 µM (inactive) | > 100 µM (inactive) | > 100 µM (inactive) | > 100 µM (inactive) | –
2 | C=CCOC(=O)CCCCCCCCCCCCCCCOC(=O)C1=C(CCC[C@@H](C)O[Si](C)(C)C(C)(C)C)NC(=O)N2[C@H](CC3(CC/C=C\[C@H](CC)O[Si](C(C)C)(C(C)C)C(C)C)OCCO3)CC[C@H]12 | – | > 100 µM (inactive) | > 100 µM (inactive) | > 100 µM (inactive) | > 100 µM (inactive) | – | > 100 µM (inactive) | – | > 100 µM (inactive) | > 100 µM (inactive) | > 100 µM (inactive) | > 100 µM (inactive) | > 100 µM (inactive) | > 100 µM (inactive) | > 100 µM (inactive) | > 100 µM (inactive) | – | > 100 µM (inactive) | > 100 µM (inactive) | > 100 µM (inactive)
3 | Cc1cc(Cl)nc(NC(=O)CSc2ccc(Cl)cc2)n1 | > 100 µM (inactive) | > 100 µM (inactive) | 72.9 µM (inactive) | > 100 µM (inactive) | > 100 µM (inactive) | > 100 µM (inactive) | – | > 100 µM (inactive) | > 100 µM (inactive) | > 100 µM (inactive) | 79.1 µM (inactive) | > 100 µM (inactive) | > 100 µM (inactive) | 64.7 µM (inactive) | > 100 µM (inactive) | > 100 µM (inactive) | 77.6 µM (inactive) | > 100 µM (inactive) | > 100 µM (inactive) | > 100 µM (inactive)
4 | O=Cc1cc(O)c(O)c(/C=N/n2c3ccccc3c3ccccc32)c1 | 5.15 µM (inactive) | 8.61 µM (inactive) | 15.9 µM (inactive) | – | 4.56 µM (inactive) | 5.57 µM (inactive) | 0.64 µM (active) | 2.63 µM (inactive) | 17.9 µM (inactive) | 18.9 µM (inactive) | 11.2 µM (inactive) | 5.58 µM (inactive) | 6.1 µM (inactive) | 12.4 µM (inactive) | 7.1 µM (inactive) | 7.76 µM (inactive) | 19.3 µM (inactive) | 10.1 µM (inactive) | 11.3 µM (inactive) | –
5 | C/C(=N\NC(N)=S)c1ccc2c(c1)Sc1ccccc1O2 | 2.56 µM (inactive) | 6.55 µM (inactive) | 2.59 µM (inactive) | 2.11 µM (inactive) | 3.34 µM (inactive) | – | – | 2.48 µM (inactive) | 4.01 µM (inactive) | 1.24 µM (inactive) | 3.46 µM (inactive) | 2.88 µM (inactive) | 2.4 µM (inactive) | 5.53 µM (inactive) | 5.05 µM (inactive) | 4.19 µM (inactive) | 3.78 µM (inactive) | 2.59 µM (inactive) | 0.29 µM (active) | 2.55 µM (inactive)
6 | CC1=C(N2CC2)C(=O)C(CO)=C(N2CC2)C1=O | 0.0123 µM (active) | 0.0927 µM (active) | 0.0575 µM (active) | – | < 0.0102 µM (active) | 0.0231 µM (active) | 0.0106 µM (active) | – | 0.067 µM (active) | 0.254 µM (active) | 0.0144 µM (active) | 0.0101 µM (active) | 0.0111 µM (active) | 0.0357 µM (active) | 0.173 µM (active) | 0.0227 µM (active) | 0.234 µM (active) | – | – | 0.0106 µM (active)
7 | O=c1[nH]c(=O)n(COCc2ccccc2)cc1Nc1ccc(Br)cc1 | > 100 µM (inactive) | > 100 µM (inactive) | > 100 µM (inactive) | – | > 100 µM (inactive) | 43.2 µM (inactive) | > 100 µM (inactive) | – | > 100 µM (inactive) | > 100 µM (inactive) | 17.1 µM (inactive) | > 100 µM (inactive) | > 100 µM (inactive) | – | – | > 100 µM (inactive) | > 100 µM (inactive) | > 100 µM (inactive) | > 100 µM (inactive) | > 100 µM (inactive)
8 | CCOC(=O)c1cc(Sc2ccc(N)c(C(=O)OCC)c2)ccc1N | > 100 µM (inactive) | > 100 µM (inactive) | 21.6 µM (inactive) | > 100 µM (inactive) | 18 µM (inactive) | 11.5 µM (inactive) | 13.2 µM (inactive) | 20.7 µM (inactive) | 12.1 µM (inactive) | 13.5 µM (inactive) | 14.8 µM (inactive) | – | > 100 µM (inactive) | 11.6 µM (inactive) | 14.4 µM (inactive) | 5.62 µM (inactive) | 21.5 µM (inactive) | 11.4 µM (inactive) | – | 5.25 µM (inactive)
9 | Nc1c(C(=O)c2ccccc2)[nH]c(NCc2ccccc2)c1C(=S)Nc1ccccc1 | > 100 µM (inactive) | > 100 µM (inactive) | > 100 µM (inactive) | > 100 µM (inactive) | > 100 µM (inactive) | > 100 µM (inactive) | > 100 µM (inactive) | > 100 µM (inactive) | > 100 µM (inactive) | > 100 µM (inactive) | > 100 µM (inactive) | > 100 µM (inactive) | > 100 µM (inactive) | > 100 µM (inactive) | > 100 µM (inactive) | > 100 µM (inactive) | > 100 µM (inactive) | – | > 100 µM (inactive) | > 100 µM (inactive)
10 | FC(F)(Sc1ncccn1)c1nc2ccccc2o1 | > 100 µM (inactive) | – | > 100 µM (inactive) | > 100 µM (inactive) | > 100 µM (inactive) | 79.3 µM (inactive) | > 100 µM (inactive) | > 100 µM (inactive) | > 100 µM (inactive) | – | > 100 µM (inactive) | 99.3 µM (inactive) | > 100 µM (inactive) | > 100 µM (inactive) | > 100 µM (inactive) | > 100 µM (inactive) | – | 89.1 µM (inactive) | 99.1 µM (inactive) | > 100 µM (inactive)
11 | COC(=O)c1ccc(C)cc1C1CN=NC12Cc1cc(C)c(C)cc1C2=O (stereo unspecified) | 35.6 µM (inactive) | 42.4 µM (inactive) | 57.4 µM (inactive) | – | 42.4 µM (inactive) | 31.8 µM (inactive) | 38.7 µM (inactive) | 65 µM (inactive) | > 100 µM (inactive) | 24.3 µM (inactive) | > 100 µM (inactive) | 46.1 µM (inactive) | 35.4 µM (inactive) | 30.5 µM (inactive) | 27 µM (inactive) | 30.2 µM (inactive) | 46.5 µM (inactive) | – | 24.9 µM (inactive) | 28.6 µM (inactive)
12 | Cc1cc2cc3c(cc2c(-c2ccc(N)cc2)n1)OCO3 | 31.6 µM (inactive) | > 100 µM (inactive) | – | 82.8 µM (inactive) | 39.4 µM (inactive) | – | 7.74 µM (inactive) | 81.7 µM (inactive) | 36.6 µM (inactive) | 35.4 µM (inactive) | 57.1 µM (inactive) | 29.2 µM (inactive) | 81.8 µM (inactive) | 86.9 µM (inactive) | 13.7 µM (inactive) | 38.9 µM (inactive) | 51.3 µM (inactive) | 40.7 µM (inactive) | 76.6 µM (inactive) | 72.9 µM (inactive)
13 | O=c1[nH][nH]c(=O)n1Cc1ccccc1Cn1c(=O)[nH][nH]c1=O | > 100 µM (inactive) | > 100 µM (inactive) | > 100 µM (inactive) | > 100 µM (inactive) | > 100 µM (inactive) | > 100 µM (inactive) | – | > 100 µM (inactive) | > 100 µM (inactive) | > 100 µM (inactive) | > 100 µM (inactive) | > 100 µM (inactive) | > 100 µM (inactive) | > 100 µM (inactive) | > 100 µM (inactive) | > 100 µM (inactive) | > 100 µM (inactive) | > 100 µM (inactive) | > 100 µM (inactive) | > 100 µM (inactive)
14 | CCOC(=O)C(Cc1cn(C(C)=O)c2ccccc12)P(=O)(OCC)OCC (stereo unspecified) | > 100 µM (inactive) | > 100 µM (inactive) | – | > 100 µM (inactive) | > 100 µM (inactive) | – | – | > 100 µM (inactive) | > 100 µM (inactive) | – | > 100 µM (inactive) | > 100 µM (inactive) | > 100 µM (inactive) | – | > 100 µM (inactive) | – | > 100 µM (inactive) | 60.8 µM (inactive) | > 10 µM (inactive) | > 100 µM (inactive)
15 | O=C(C#CP(=O)(O)c1ccccc1)c1ccccc1 | > 100 µM (inactive) | > 100 µM (inactive) | > 100 µM (inactive) | > 100 µM (inactive) | > 100 µM (inactive) | – | > 100 µM (inactive) | > 100 µM (inactive) | > 100 µM (inactive) | > 100 µM (inactive) | > 100 µM (inactive) | < 0.01 µM (active) | > 100 µM (inactive) | > 100 µM (inactive) | – | > 100 µM (inactive) | > 100 µM (inactive) | > 100 µM (inactive) | > 100 µM (inactive) | > 100 µM (inactive)
16 | CCCc1c(O)nc(Nc2nc3ccccc3[nH]2)[nH]c1=O | > 100 µM (inactive) | > 100 µM (inactive) | > 100 µM (inactive) | > 100 µM (inactive) | > 100 µM (inactive) | > 100 µM (inactive) | – | > 100 µM (inactive) | > 100 µM (inactive) | > 100 µM (inactive) | – | > 100 µM (inactive) | > 100 µM (inactive) | > 100 µM (inactive) | > 100 µM (inactive) | > 100 µM (inactive) | > 100 µM (inactive) | > 100 µM (inactive) | > 100 µM (inactive) | > 100 µM (inactive)

Reference: ChEMBL document CHEMBL1201862, “PubChem BioAssay data set” (2004)
